pIC50: −log10 of the molar value. Values joined by “and” are separate entries in the source; they are usually repeats but may differ in a detail not shown here. Equal entries are not always repeated.

The target of assay [1] is T1, Epidermal growth factor receptor (Homo sapiens, UniProt P00533). Put plainly: Inhibition of EGF-stimulated tyrosine phosphorylation in A431 cells.
In assay [2] the target is T1, Epidermal growth factor receptor.
Description: Inhibitory activity against epidermal growth factor receptor tyrosine kinase.
Assay [3] deals with T2, Proto-oncogene tyrosine-protein kinase Src (Homo sapiens, UniProt P12931). As to the kind of experiment: Inhibition of c-Src tyrosine kinase.
Assay [4] addresses Protein kinase C alpha type (Homo sapiens, UniProt P17252). As to the kind of experiment: Inhibitory activity against protein kinase C alpha […] kinase.
For assay [5], the target named is Platelet-derived growth factor receptor (Homo sapiens, UniProt P09619+P16234). Put plainly: Inhibition of PDGF stimulated tyrosine phosphorylation in BALB/c3t3 cells.
Assay [6] has as its system Balb/MK. As to the kind of experiment: Inhibition of proliferation of EGF-dependent BALB/MK cells. The following applies: Mus musculus. It counts as functional, cell-based.
Assay [7] deals with Tyrosine-protein kinase ABL1 (Homo sapiens, UniProt P00519).
Description: Inhibitory activity against v-Abl tyrosine kinase
The subject of assay [8] is Balb/MK. As to the kind of experiment: Inhibition of proliferation of EGF-dependent BALB/MK cells. It counts as functional, cell-based. Conditions: Mus musculus.
For assay [9], the system named is A-431. As to the kind of experiment: In vivo activity against A431 xenografts in mice at 12.5 mg/kg ip dose. The following applies: route intraperitoneal. It is filed as functional.
In assay [10] the test system is A-431. As to the kind of experiment: In vivo activity against A431 xenografts in mice at 12.5 mg/kg peroral dose. It counts as functional. Conditions: route oral.
The subject of assay [11] is A-431. Put plainly: In vivo activity against A431 xenografts in mice at 50 mg/kg ip dose. It is filed as functional. Conditions: route intraperitoneal.
Assay [12] deals with Cyclin-dependent kinase 1 (Homo sapiens, UniProt P06493). As to the kind of experiment: Inhibitory activity against CDK1 Ser/Thr kinase.
In assay [13] the target is T2, Proto-oncogene tyrosine-protein kinase Src. Put plainly: Inhibitory activity against c-Src tyrosine kinase.

T1 sequence (P00533 whole entry): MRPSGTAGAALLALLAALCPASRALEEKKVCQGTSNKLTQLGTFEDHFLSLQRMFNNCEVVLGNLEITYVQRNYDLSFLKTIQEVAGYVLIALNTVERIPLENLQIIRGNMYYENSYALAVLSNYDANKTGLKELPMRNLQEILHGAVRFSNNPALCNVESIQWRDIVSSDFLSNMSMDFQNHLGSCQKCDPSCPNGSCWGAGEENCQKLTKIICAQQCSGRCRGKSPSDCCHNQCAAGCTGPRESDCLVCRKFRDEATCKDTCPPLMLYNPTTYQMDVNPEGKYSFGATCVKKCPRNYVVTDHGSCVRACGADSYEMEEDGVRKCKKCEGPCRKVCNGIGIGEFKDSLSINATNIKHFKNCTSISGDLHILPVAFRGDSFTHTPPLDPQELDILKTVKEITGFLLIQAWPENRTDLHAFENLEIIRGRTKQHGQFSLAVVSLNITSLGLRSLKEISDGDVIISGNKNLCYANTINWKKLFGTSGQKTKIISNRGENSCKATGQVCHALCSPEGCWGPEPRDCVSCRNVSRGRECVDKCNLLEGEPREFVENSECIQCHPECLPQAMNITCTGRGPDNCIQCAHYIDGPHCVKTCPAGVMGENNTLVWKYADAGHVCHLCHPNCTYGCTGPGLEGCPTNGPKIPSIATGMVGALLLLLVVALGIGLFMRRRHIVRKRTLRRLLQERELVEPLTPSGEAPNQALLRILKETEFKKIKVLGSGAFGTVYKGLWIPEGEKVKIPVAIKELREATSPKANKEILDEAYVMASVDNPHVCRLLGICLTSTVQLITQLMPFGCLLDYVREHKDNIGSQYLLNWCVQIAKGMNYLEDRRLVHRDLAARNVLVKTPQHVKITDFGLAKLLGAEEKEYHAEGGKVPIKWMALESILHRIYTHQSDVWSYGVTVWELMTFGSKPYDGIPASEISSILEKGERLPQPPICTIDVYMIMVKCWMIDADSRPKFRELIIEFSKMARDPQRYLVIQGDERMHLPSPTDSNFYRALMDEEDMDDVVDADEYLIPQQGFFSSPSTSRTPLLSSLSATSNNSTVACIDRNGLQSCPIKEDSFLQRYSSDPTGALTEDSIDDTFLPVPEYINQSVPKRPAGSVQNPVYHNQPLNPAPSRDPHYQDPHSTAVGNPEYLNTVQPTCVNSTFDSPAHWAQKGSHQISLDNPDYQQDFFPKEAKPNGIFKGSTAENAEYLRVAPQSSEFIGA
Sequence of Tyrosine-protein kinase ABL1 (P00519 whole entry, looked up): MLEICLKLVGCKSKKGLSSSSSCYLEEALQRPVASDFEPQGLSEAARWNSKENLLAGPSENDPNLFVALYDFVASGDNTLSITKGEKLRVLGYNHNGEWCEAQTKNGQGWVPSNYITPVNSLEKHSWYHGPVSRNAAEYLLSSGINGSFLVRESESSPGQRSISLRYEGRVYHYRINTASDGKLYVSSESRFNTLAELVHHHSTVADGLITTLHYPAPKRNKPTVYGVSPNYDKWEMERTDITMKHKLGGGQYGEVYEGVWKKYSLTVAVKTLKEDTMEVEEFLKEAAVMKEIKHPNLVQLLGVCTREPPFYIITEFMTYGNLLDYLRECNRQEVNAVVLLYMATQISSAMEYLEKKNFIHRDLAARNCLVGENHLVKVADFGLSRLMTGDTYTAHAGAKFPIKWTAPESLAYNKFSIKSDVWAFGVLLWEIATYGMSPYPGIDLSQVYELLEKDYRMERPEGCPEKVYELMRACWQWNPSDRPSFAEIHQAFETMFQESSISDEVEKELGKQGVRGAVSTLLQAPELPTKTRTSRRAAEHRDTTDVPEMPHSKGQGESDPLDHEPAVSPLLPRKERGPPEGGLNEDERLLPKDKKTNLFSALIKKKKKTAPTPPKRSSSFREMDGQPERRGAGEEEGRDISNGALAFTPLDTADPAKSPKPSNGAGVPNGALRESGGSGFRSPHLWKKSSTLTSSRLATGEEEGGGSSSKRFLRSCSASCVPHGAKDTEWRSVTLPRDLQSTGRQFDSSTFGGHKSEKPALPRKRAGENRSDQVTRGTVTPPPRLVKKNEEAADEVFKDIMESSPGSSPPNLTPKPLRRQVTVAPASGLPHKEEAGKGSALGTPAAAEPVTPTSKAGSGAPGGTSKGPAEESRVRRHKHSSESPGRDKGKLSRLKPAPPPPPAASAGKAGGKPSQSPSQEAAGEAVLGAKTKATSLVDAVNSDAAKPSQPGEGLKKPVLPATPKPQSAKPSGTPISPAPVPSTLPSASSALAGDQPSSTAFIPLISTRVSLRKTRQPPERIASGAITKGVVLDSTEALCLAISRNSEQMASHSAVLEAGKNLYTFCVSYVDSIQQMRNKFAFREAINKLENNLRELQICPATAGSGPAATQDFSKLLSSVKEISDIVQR
Sequence of Cyclin-dependent kinase 1 (P06493 whole entry): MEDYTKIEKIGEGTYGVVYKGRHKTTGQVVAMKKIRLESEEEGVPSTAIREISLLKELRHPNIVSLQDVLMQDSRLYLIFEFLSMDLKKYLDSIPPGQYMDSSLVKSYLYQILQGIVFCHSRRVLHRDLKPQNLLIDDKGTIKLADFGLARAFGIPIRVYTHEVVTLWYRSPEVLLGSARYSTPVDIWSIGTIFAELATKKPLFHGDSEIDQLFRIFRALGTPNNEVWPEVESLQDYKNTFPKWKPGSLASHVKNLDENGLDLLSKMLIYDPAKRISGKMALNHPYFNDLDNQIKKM
T2 sequence (P12931 2-536 limits assumed): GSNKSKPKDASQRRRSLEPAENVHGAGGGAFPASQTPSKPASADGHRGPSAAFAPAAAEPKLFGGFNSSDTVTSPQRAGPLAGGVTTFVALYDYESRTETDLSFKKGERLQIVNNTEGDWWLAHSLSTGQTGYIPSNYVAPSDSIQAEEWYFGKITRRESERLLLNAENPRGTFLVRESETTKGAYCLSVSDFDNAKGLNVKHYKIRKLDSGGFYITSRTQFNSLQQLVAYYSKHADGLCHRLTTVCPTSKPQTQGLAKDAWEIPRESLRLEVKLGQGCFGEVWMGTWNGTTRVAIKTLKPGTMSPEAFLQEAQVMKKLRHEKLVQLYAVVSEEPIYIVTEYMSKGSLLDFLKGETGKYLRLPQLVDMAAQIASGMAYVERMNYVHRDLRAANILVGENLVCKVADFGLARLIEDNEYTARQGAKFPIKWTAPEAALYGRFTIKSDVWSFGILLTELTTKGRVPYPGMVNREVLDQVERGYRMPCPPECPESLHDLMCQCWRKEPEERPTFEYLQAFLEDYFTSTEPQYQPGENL

Regarding `Clc1cccc(Nc2[nH]nc3ncnc(Nc4cccc(Br)c4)c23)c1`, the pIC50 in [1] is more than 6.10; in [2] it was 6.89; in assay [3], less than 5.00; in assay [4], 5.42; in assay [5] it was less than 5.00; in assay [6] it was 5.84. Also, the negative logarithm of the IC50 (pIC50) in assay [7] was 5.87.

Consider `Nc1ncnc2c1c(-c1ccccc1)nn2-c1ccccc1`, for which the negative-log IC50 (pIC50) was less than 4.30 in assay [8]; 6.10 in [2]; less than 4.00 in [4]; less than 5.00 in assay [5]; less than 5.00 in [7].

For `Cc1cccc(Nc2ncnc3[nH]nc(Nc4cccc(Cl)c4)c23)c1`, the negative-log IC50 (pIC50) in assay [1] was 6.82; in assay [2], 6.89; in assay [3], 5.09; in assay [4], 5.33; in assay [5] it was less than 5.00; in assay [6], 5.57. This compound also gave a pIC50 in assay [7] of 5.78. Further, the T/C was 27% in [9]; 44% in [10]; 21% and 23% in assay [11].

With `Nc1ccc(-c2[nH]nc3ncnc(Nc4cccc(Cl)c4)c23)cc1`, the negative logarithm of the IC50 (pIC50) is 6.10 in assay [1]; 8.70 in assay [2]; 5.35 in assay [12]; 5.31 in assay [13]; 5.44 in assay [4]; less than 5.00 in [5]. The pIC50 in assay [6] was 6.11; in assay [7], 5.44.

Turning to `Oc1ccc(-c2[nH]nc3ncnc(Nc4cccc(Cl)c4)c23)cc1`, the negative logarithm of the IC50 (pIC50) in assay [1] was 6.30; in assay [2], 8.22; in assay [12] it was 6.59; in [13], 5.07; in assay [4] it was 5.73; in [5], less than 5.00. Also, the figures for the pIC50 in assay [6] and in assay [7] were 6.25 and 6.62, respectively.

Turning to `Clc1cccc(Nc2[nH]cnc3nnc(NCc4ccccc4)c2-3)c1`, the pIC50 in assay [1] was 8.52; in assay [2], 8.15; in assay [12] it was 5.13; in assay [13] it was less than 5.00; in assay [4] it was 5.00; in assay [5] it was less than 5.00. Further, the pIC50 in assay [6] was 6.52; in assay [7] it was 5.18.

As to `Clc1cccc(Nc2ncnc3n[nH]c(Nc4cccc(Cl)c4)c23)c1`, the negative-log IC50 (pIC50) is 6.60 in assay [1]; 6.48 in [2]; 5.28 in assay [13]; 5.23 in [4]; 5.00 in [5]; 5.85 in assay [6]. For the same compound, in assay [7], the pIC50 is 5.70. Further, the T/C in assay [9] is 46%; in [10], 41%; in [11], 25% and 31%.

In the case of `Clc1cccc(Nc2[nH]cnc3nnc(-c4ccccc4)c2-3)c1`, the negative logarithm of the IC50 (pIC50) in [1] was 7.52; in [2], 7.72; in [3] it was less than 5.00; in assay [12] it was 5.55; in [4], less than 5.00; in assay [5], less than 5.00. Further, the negative-log IC50 (pIC50) in assay [6] was 6.09; in assay [7], 5.42.

Regarding `Clc1cccc(Nc2[nH]nc3ncnc(NCc4ccccc4)c23)c1`, the negative logarithm of the IC50 (pIC50) is 5.82 in assay [1]; 6.06 in [2]; 5.05 in assay [12]; less than 5.00 in assay [13]; 5.35 in assay [4]; less than 5.00 in [5]. Moreover, the figures for the pIC50 in [6] and in assay [7] were 4.30 and less than 5.00, respectively.

Regarding `Oc1ccc(Nc2[nH]nc3ncnc(Nc4cccc(Cl)c4)c23)cc1`, the pIC50 was 7.40 in assay [1]; 8.10 in assay [2]; less than 6.00 in assay [12]; 6.40 in assay [13]; less than 6.00 in assay [4]; less than 5.00 in assay [5]. Moreover, the values for the pIC50 in assay [6] and in assay [7] were 5.97 and 6.82, respectively.

(Values after ChEMBL document CHEMBL1130217, “Use of a pharmacophore model for the design of EGF-R tyrosine kinase inhibitors: 4-(phenylamino)pyrazolo[3,4-d]pyrimidines” (J Med Chem, 1997).)
